The source of these data is patent US10118936B2, “Arginase inhibitors and methods of use” (ASTRAZENECA AB, priority 2009, dated 2018).

The subject of one experiment is microvasculature. The conditions noted are these: subcutaneous administration in humans; cited from earlier work.
In the next experiment the target is T1, human arginase I (hArgI) (Homo sapiens, UniProt P05089).
T1 sequence (P05089 1-322): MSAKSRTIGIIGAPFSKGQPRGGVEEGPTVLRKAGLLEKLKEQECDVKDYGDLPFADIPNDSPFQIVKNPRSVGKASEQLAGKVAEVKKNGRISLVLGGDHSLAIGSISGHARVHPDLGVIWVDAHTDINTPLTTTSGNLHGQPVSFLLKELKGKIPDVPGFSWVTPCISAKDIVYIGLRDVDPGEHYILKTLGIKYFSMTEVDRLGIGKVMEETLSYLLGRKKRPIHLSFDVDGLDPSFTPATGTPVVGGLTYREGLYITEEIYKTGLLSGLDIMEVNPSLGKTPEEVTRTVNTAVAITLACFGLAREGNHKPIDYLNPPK
As to the kind of experiment: QuantiChrom colorimetric arginase inhibition assay, human arginase I. The class given is biochemical. The following applies: IC50 from 12-concentration curve converted to Ki by Cheng-Prusoff equation. The method, then: (§1) Quantitative determination of arginase activity was performed by a colorimetric method using the QuantiChrom™ Arginase Assay Kit available from BioAssay Systems (Hayward, Calif., Catalog No. DARG-200), which was used according to the manufacture's protocol. Briefly, the method utilizes a chromogen that forms a colored complex specifically with urea produced in the arginase reaction. […] The intensity of the color is directly proportional to the arginase activity in the sample.
(§2) The rate of urea production was measured in the presence of twelve different concentrations of each potential inhibitor compound. The half maximal inhibitory concentration (IC50) was determined by constructing a dose-response curve. As IC50 values are dependent upon the measurement conditions, the IC50 values are converted to the inhibitor binding affinity (Ki) using the Cheng-Prusoff equation and the measured affinity constant (Km) of L-arginine.

Experiment [1] deals with T2, human arginase II (hArgII) (Homo sapiens, UniProt P78540).
T2 sequence (P78540 23-354): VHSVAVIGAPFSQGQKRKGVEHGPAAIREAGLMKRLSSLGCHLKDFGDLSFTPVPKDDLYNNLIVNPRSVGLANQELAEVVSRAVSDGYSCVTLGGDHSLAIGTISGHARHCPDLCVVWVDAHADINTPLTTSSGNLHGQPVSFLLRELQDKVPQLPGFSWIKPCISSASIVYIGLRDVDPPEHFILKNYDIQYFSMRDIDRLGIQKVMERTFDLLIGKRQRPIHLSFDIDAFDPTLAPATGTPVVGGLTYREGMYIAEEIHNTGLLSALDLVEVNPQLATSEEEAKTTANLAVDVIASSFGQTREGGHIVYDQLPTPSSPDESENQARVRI
As to the kind of experiment: QuantiChrom colorimetric arginase inhibition assay, human arginase II. In kind it is biochemical. The conditions noted are these: IC50 from 12-concentration curve converted to Ki by Cheng-Prusoff equation. The method, then:
as §1, §2

In experiment [2] the test system is opossum internal anal sphincter muscle. The following applies: cited from earlier work.
The subject of experiment [3] is airway hyperresponsiveness. The following applies: guinea pigs, allergic asthma model, nebulizer treatment; cited from earlier work.
Experiment [4] relates to rabbit and human penile corpus cavernosum. The following applies: cited from earlier work.
A further experiment concerns erectile response. The conditions noted are these: live male rabbits; cited from earlier work.
In experiment [5] the test system is corpus cavernosum of the diabetic person. The following applies: ex vivo; cited from earlier work.
Experiment [6] deals with genitalia engorgement response. The conditions noted are these: live female rabbits; cited from earlier work.
The subject of experiment [7] is experimental autoimmune encephalomyelitis. The conditions noted are these: cited from earlier work.

With S-(2-boronoethyl)-1-cysteine [BEC], the vasodilation and circulation result in the experiment with microvasculature was “vasodilatory and enhances circulation”.
On to `N[C@@H](CCCCB(O)O)C(=O)O` [ABH, 2(S)-amino-6-borono-hexanoic acid], for which the Ki (on human arginase I (hArgI); in [1]) was 0.1 to 10 nM throughout. Also, the “relaxation of internal anal sphincter muscle” value in experiment [2] was “relax this muscle”. Moreover, the airway hyperresponsiveness entry in experiment [3] was “prevents airway hyperresponsiveness”. In experiment [4], the “NO-dependent relaxation of corpus cavernosum” value is listed as “enhances the NO-dependent relaxation of this tissue”. Also, the erectile response result in the experiment with erectile response is listed as “enhances the erectile response in live male rabbits”. The NO biosynthesis result in experiment [5] is recorded as “restores NO biosynthesis”. Moreover, in experiment [6], the “engorgement response in the genitalia” value is “enhances the engorgement response in the genitalia of live female rabbits”. Besides, the disease score entry in experiment [7] was “improves the disease score of animals”.
